ChEMBL document CHEMBL1131683, “Preparation of pyrrolidine and isoxazolidine benzamidines as potent inhibitors of coagulation factor Xa” (Bioorg Med Chem Lett, 1999)

What was measured:
Oryctolagus cuniculus = organism: Oryctolagus cuniculus; assay: Compound was tested for its effect in rabbit arterio-venous (A-V) shunt thrombosis model and the inhibitory dose was reported; assay type: functional
Coagulation factor X = Coagulation factor X (Homo sapiens, UniProt P00742); assay: Binding affinity against Coagulation factor X in an enzyme inhibition assay.
Serine protease 1 = Serine protease 1 (Homo sapiens, UniProt P07477); assay: Binding affinity against trypsin in an enzyme inhibition assay.
[1] = Clearance rate in rabbits; assay type: ADME, organism-based, Oryctolagus cuniculus; details: rabbit, in vivo
[2] = Half life value in rabbits; assay type: ADME, Oryctolagus cuniculus; details: rabbit, in vivo

Serine protease 1, sequence (P07477 whole entry): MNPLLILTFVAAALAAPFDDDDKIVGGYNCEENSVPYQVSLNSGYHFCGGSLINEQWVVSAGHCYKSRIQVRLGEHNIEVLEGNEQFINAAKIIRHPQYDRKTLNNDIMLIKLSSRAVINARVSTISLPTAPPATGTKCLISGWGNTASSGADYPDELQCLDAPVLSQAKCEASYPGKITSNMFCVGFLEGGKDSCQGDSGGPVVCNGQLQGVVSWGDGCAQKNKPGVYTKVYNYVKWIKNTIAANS
Coagulation factor X, sequence (P00742 41-179 limits assumed): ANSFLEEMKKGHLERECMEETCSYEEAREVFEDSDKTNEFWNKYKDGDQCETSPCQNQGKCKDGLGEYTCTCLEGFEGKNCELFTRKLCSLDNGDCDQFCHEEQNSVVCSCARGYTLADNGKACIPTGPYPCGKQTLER
Coagulation factor X, sequence (P00742 235-488 limits assumed): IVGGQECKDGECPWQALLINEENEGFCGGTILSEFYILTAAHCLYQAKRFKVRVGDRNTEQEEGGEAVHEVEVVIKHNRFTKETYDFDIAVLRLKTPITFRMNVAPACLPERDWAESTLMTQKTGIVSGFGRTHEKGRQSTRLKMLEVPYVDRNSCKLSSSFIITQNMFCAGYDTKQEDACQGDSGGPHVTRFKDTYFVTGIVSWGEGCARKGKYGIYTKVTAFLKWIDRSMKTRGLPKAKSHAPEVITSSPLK

SMILES	ID50 (Oryctolagus cuniculus)	Ki (Coagulation factor X)	Ki (Serine protease 1)	clearance [1]	half-life [2]
COC(=O)[C@@H]1CN(Cc2ccc(-c3ccccc3S(N)(=O)=O)cc2)C[C@H]1c1cccc(C(=N)N)c1.O=C(O)C(F)(F)F.O=C(O)C(F)(F)F (stereo in doubt; 10)	>1.4 µM/h/kg	4.8 nM	63 nM	–	–
COC(=O)CN(CCCc1ccc(-c2ccccc2S(N)(=O)=O)cc1)c1cccc(C(=N)N)c1	–	1.3 nM	–	–	–
CN(C)C(=O)[C@@H]1CN(Cc2ccc(-c3ccccc3S(N)(=O)=O)cc2)C[C@H]1c1cccc(C(=N)N)c1	–	400 nM	–	–	–
CCCCOC(=O)[C@@H]1CN(Cc2ccc(-c3ccccc3S(N)(=O)=O)cc2)C[C@H]1c1cccc(C(=N)N)c1	–	12 nM	110 nM	–	–
COC(=O)[C@@H]1CN(Cc2ccc(-c3ccccc3S(N)(=O)=O)cc2)O[C@H]1c1cccc(C(=N)N)c1	–	3.1 nM	69 nM	–	–
N=C(N)c1cccc([C@@H]2CN(Cc3ccc(-c4ccccc4S(N)(=O)=O)cc3)C[C@H]2C(=O)O)c1	–	600 nM	–	–	–
N=C(N)c1cccc([C@@H]2CN(Cc3ccc(-c4ccccc4S(N)(=O)=O)cc3)C[C@@H]2C(=O)O)c1	–	460 nM	–	–	–
CC(C)OC(=O)[C@@H]1CN(Cc2ccc(-c3ccccc3S(N)(=O)=O)cc2)O[C@H]1c1cccc(C(=N)N)c1.O=C(O)C(F)(F)F.O=C(O)C(F)(F)F	–	1.8 nM	93 nM	> 33.3 mL/min/kg	< 1 h
COC(=O)[C@H]1CN(Cc2ccc(-c3ccccc3S(N)(=O)=O)cc2)C[C@H]1c1cccc(C(=N)N)c1	–	170 nM	> 1600 nM	–	–
COC(=O)[C@H]1CN(Cc2ccc(-c3ccccc3S(N)(=O)=O)cc2)C[C@@H]1c1cccc(C(=N)N)c1	–	13 nM	200 nM	–	–
CCOC(=O)[C@]1(C)CN(Cc2ccc(-c3ccccc3S(N)(=O)=O)cc2)C[C@H]1c1cccc(C(=N)N)c1	–	26 nM	750 nM	–	–
CC(C)OC(=O)[C@@H]1CN(Cc2ccc(-c3ccccc3S(N)(=O)=O)cc2)C[C@H]1c1cccc(C(=N)N)c1.O=C(O)C(F)(F)F.O=C(O)C(F)(F)F	–	5.8 nM	98 nM	> 33.3 mL/min/kg	< 1 h
N=C(N)c1cccc([C@@H]2CN(Cc3ccc(-c4ccccc4S(N)(=O)=O)cc3)C[C@H]2C(N)=O)c1	–	150 nM	500 nM	–	–
CC(=O)[C@@H]1CN(Cc2ccc(-c3ccccc3S(N)(=O)=O)cc2)C[C@H]1c1cccc(C(=N)N)c1	–	36 nM	200 nM	–	–
COC(=O)[C@@H]1CN(Cc2ccc(-c3ccccc3S(N)(=O)=O)cc2)C[C@H]1c1cccc(C(=N)N)c1 (stereo in doubt; 15)	–	3.4 nM	52 nM	–	–
